Assay results from patent publication US20180194762A1 (Pharmacyclics LLC, priority 2017, published 2018).
Like-named read-outs stand apart in the source and are kept apart here.

Tests used:
Type in all cases: biochemical
Btk = target: T1, Btk (Homo sapiens, UniProt Q06187); experiment: Btk in vitro inhibitory activity (one of Method A TR-FRET, Method B electrophoretic mobility shift, Method C radiometric filter binding)
T1 construct: purified from insect cells as a full-length construct containing a N-terminal 6X-His tag; His6 (N); made in house; host or cells: insect cells (Method C)
T1 sequence (Q06187 whole entry): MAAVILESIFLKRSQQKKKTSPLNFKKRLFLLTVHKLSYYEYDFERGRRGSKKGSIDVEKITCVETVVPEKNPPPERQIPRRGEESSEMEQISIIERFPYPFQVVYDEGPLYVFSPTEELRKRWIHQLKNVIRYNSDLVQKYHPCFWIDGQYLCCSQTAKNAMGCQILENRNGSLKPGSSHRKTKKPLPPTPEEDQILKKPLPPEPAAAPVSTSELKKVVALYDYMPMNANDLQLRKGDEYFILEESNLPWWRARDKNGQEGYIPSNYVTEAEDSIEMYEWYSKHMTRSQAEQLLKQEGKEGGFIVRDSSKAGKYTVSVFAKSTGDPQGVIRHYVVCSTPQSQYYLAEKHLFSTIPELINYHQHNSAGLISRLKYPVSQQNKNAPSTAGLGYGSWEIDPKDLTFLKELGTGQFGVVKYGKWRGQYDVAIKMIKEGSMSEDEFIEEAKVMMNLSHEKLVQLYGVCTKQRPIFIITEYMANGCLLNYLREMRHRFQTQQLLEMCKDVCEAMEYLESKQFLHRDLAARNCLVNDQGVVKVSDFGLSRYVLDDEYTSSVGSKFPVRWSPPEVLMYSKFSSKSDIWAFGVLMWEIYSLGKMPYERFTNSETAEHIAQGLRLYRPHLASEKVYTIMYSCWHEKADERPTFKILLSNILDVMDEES
In short: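 Three alternative formats were used. A radiometric filter-binding read used 8 nM full-length His-BTK with 0.2 mg/mL poly(Glu-Tyr) 4:1 (C); microfluidic separation of 1 μM FAM-peptide by 1 nM BTK gave IC50 from 12-point curves (B); TR-FRET at Km ATP, 0.5 nM Btk, gave Ki(app)-derived IC50 (A).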

TEC = target: T2, TEC (Homo sapiens, UniProt P42680); experiment: Inhibition of a panel of kinases (in vitro HotSpot kinase assay, 33P-ATP, 1 μM ATP); conditions: for IC50: HotSpot kinase assay, 1 μM ATP; for TEC/Btk: ratio of TEC IC50 to Btk IC50 (selectivity)
T2 sequence (P42680 1-631): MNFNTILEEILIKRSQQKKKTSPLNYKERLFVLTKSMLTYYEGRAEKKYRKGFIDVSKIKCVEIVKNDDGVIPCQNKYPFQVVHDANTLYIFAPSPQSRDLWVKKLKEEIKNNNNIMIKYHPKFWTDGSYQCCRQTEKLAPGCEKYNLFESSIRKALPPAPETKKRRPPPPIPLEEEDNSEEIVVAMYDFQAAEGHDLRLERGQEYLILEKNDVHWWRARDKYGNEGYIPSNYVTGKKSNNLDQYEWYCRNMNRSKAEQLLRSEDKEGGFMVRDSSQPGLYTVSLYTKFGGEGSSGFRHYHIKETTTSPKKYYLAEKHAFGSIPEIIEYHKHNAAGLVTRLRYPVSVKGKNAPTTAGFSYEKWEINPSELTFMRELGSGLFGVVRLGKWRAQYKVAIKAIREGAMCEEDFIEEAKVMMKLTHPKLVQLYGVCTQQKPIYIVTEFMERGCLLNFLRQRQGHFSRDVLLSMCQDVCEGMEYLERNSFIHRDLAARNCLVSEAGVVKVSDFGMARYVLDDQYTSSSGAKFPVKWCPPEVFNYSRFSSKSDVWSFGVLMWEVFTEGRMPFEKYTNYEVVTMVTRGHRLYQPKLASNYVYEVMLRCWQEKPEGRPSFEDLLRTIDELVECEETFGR
In short: (§1)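 At 1 μM ATP spiked with 33P-ATP, substrate phosphorylation by the purified enzymes gives the extent of inhibition.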

panel of kinases = target: T3, panel of kinases (Homo sapiens, UniProt P51813); experiment: Inhibition of a panel of kinases (in vitro HotSpot kinase assay, 33P-ATP, 1 μM ATP), other kinases; conditions: BMX wild-type, read-out: BMX-WT IC50
T3 sequence (P51813 1-675): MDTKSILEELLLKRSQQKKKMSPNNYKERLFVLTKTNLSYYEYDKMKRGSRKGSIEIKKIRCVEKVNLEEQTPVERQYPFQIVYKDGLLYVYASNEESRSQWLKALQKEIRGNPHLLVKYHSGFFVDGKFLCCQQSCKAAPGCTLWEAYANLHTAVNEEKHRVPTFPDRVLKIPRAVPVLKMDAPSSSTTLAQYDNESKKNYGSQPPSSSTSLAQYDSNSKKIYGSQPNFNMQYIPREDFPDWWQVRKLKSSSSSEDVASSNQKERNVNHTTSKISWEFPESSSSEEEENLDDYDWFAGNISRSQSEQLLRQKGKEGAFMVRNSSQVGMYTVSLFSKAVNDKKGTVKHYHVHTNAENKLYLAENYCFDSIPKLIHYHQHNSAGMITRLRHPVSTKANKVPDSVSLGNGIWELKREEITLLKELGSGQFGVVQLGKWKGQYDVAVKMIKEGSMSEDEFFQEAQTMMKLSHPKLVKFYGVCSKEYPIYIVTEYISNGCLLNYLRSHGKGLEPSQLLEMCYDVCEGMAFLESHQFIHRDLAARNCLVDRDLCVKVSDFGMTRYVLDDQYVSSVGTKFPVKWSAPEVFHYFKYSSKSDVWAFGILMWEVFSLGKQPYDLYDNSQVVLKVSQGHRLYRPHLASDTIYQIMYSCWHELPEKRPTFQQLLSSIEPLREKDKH
In short: as §1

[1] = wild-type Btk, read-out: Btk-WT IC50
[2] = method is one of A, B or C, not stated which, read-out: IC50 values against Btk

SMILES | IC50 (Btk; [1]) | IC50 (TEC) | TEC/Btk (TEC) | IC50 (panel of kinases) | IC50 (Btk; [2])
CN(C)C(=O)N1CCC[C@@H](Nc2n[nH]c3nccc(-c4ccc(CNC(=O)c5noc(C(C)(C)C)n5)c(F)c4)c23)C1 [Example 116, (3R)-3-{[4-(4-{[(5-tert-butyl-1,2,4-oxadiazol-3-yl) formamido]methyl}-3-fluorophenyl)-1H-pyrazolo[3,4-b]pyridin-3-yl]amino}-N,N-dimethylpiperidine-1-carboxamide] | 11 nM | 4470 nM | 406 | 3790 nM | –
CC(C)c1cc(C(=O)NCc2ccc(-c3ccnc4[nH]nc(N5CC[C@@H](N)C5)c34)cc2F)on1 [Example 182, N-[(4-{3-[(3R)-3-aminopyrrolidin-1-yl]-1H-pyrazolo[3,4-b]pyridin-4-yl}-2-fluorophenyl)methyl]-3-(propan-2-yl)-1,2-oxazole-5-carboxamide] | 14.5 nM | 2610 nM | 180 | 1320 nM | –
CC(C)(C)c1nc(C(=O)NCc2ccc(-c3ccnc4[nH]nc(C5=CCNC5)c34)cc2F)no1 [Example 280, 5-tert-butyl-N-({4-[3-(2,5-dihydro-1H-pyrrol-3-yl)-1H-pyrazolo[3,4-b]pyridin-4-yl]-2-fluorophenyl}methyl)-1,2,4-oxadiazole-3-carboxamide] | 8.84 nM | 2150 nM | 243 | 1720 nM | –
CCC(=O)N1CC[C@@H](Nc2n[nH]c3nccc(-c4ccc(C5(NC(=O)c6noc(C(C)(C)C)n6)CC5)cc4)c23)C1 [Compound 5, (R)-5-(tert-butyl)-N-(1-(4-(3-((1-propionylpyrrolidin-3-yl)amino)-1H-pyrazolo[3,4-b]pyridin-4-yl)phenyl)cyclopropyl)-1,2,4-oxadiazole-3-carboxamide] | 52.7 nM | 2590 nM | 49 | 4350 nM | –
C=CC(=O)N1CC[C@@H](Nc2n[nH]c3nccc(-c4ccc(CNC(=O)c5ccc(C(=C)C)cc5)c(F)c4)c23)C1 [Compound 47, (R)—N-(4-(3-((1-acryloylpyrrolidin-3-yl)amino)-1H-pyrazolo[3,4-b]pyridin-4-yl)-2-fluorobenzyl)-4-(prop-1-en-2-yl)benzamide] | 682 nM | 2940 nM | 4 | 1830 nM | –
CC(C)(C)c1ccc(C(=O)Nc2ccc(-c3ccnc4[nH]nc(N[C@@H]5CCNC5)c34)cc2F)cc1 [Compound 42, 4-tert-butyl-N-[2-fluoro-4-(3-{[(3R)-pyrrolidin-3-yl]amino}-1H-pyrazolo[3,4-b]pyridin-4-yl)phenyl]benzamide] | > 10000 nM | > 10000 nM | – | > 10000 nM | –

Stronger by IC50 (Btk; [1]), values ahead:

IC50 (Btk; [1]) | IC50 (TEC) | TEC/Btk (TEC) | IC50 (panel of kinases) | IC50 (Btk; [2]) | SMILES
4.5 nM | 6260 nM | 1391 | 6050 nM | < 10 nM | CC(C)(C)c1noc(C(=O)NCc2ccc(-c3ccnc4[nH]nc(N[C@H]5CCNC5)c34)cc2F)n1 [Example 162, 3-tert-butyl-N-{[2-fluoro-4-(3-{[(3S)-pyrrolidin-3-yl]amino}-1H-pyraozlo[3,4-b]pyridin-4-yl)phenyl]methyl}-1,2,4-oxadiazole-5-carboxamide]
0.828 nM | 843 nM | 1018 | 3350 nM | < 10 nM | CC(C)(C)c1nc(C(=O)NCc2ccc(-c3ccnc4[nH]nc(NC5CNC5)c34)cc2F)no1 [Example 124, N-[(4-{3-[(azetidin-3-yl)amino]-1H-pyrazolo[3,4-b]pyridin-4-yl}-2-fluorophenyl)methyl]-5-tert-butyl-1,2,4-oxadiazole-3-carboxamide]
1.87 nM | 1920 nM | – | 4990 nM | – | C[C@H]1CC[C@@H](Nc2n[nH]c3nccc(-c4ccc(CNC(=O)c5nc(C(C)(C)C)no5)c(F)c4)c23)CN1C(=O)C1(C)COC1 [Example 419, 3-tert-butyl-N-{[2-fluoro-4-(3-{[(3R,6S)-6-methyl-1-(3-methyloxetane-3-carbonyl)piperidin-3-yl]amino}-1H-pyrazolo[3,4-b]pyridin-4-yl)phenyl]methyl}-1,2,4-oxadiazole-5-carboxamide]
